Measured values taken from ChEMBL document CHEMBL1641446, “Novel pyrrolo[2,1-f][1,2,4]triazin-4-amines: Dual inhibitors of EGFR and HER2 protein tyrosine kinases” (Bioorg Med Chem Lett, 2011).

Experiments:
[1] = Drug level in BALB/c mouse at 50 mg/kg, po after 4 hrs; format: ADME, organism-based; parameters: dose 50 mg/kg, route oral; settings: in vivo, read-out: Drug uptake
[2] = Cmax in BALB/c mouse at 50 mg/kg, po; format: ADME, organism-based; parameters: dose 50 mg/kg, route oral; settings: in vivo
[3] = molecular target: Epidermal growth factor receptor (Homo sapiens) (UniProt P00533); test: Inhibition of EGFR
NCI-N87 [4] = test: Antitumor activity against human NCI-N87 cells xenografted in po dosed athymic mouse assessed as minimum effective dose administered Q1D for 14 days; settings: 336 h, read-out: MED
[5] = molecular target: Receptor tyrosine-protein kinase erbB-2 (Homo sapiens) (UniProt P04626); test: Inhibition of HER2
NCI-N87 [6] = test: Antiproliferative activity against human NCI-N87 cells; format: functional, cell-based
A2780 = test: Antiproliferative activity against human A2780 cells; format: functional, cell-based
[7] = Antitumor activity against human GEO cells xenografted in po dosed athymic mouse assessed as minimum effective dose; format: functional; settings: read-out: MED
[8] = AUC ( 0 to 24 hrs) in BALB/c mouse at 15 mg/kg, po; format: ADME, organism-based; parameters: time < 24 hr, dose 15 mg/kg, route oral; settings: plasma
[9] = Fraction unbound in BALB/c mouse serum at 10 uM by equilibrium dialysis; format: ADME, cell-free
[10] = molecular target: Tyrosine-protein kinase Lck (Homo sapiens, UniProt P06239); test: Inhibition of LCK
[11] = molecular target: Vascular endothelial growth factor receptor 2 (Homo sapiens, UniProt P35968); test: Inhibition of KDR
[12] = Drug level in BALB/c mouse at 15 mg/kg, po after 3 hrs; format: ADME, organism-based; parameters: dose 15 mg/kg, route oral; settings: in vivo, read-out: Drug uptake
[13] = Drug level in BALB/c mouse at 15 mg/kg, po after 24 hrs; format: ADME, organism-based; parameters: dose 15 mg/kg, route oral; settings: in vivo, read-out: Drug uptake
[14] = Drug level in BALB/c mouse at 240 mg/kg, po after 24 hrs; format: ADME, organism-based; parameters: dose 240 mg/kg, route oral; settings: in vivo, read-out: Drug uptake
[15] = Drug level in BALB/c mouse at 240 mg/kg, po after 3 hrs; format: ADME, organism-based; parameters: dose 240 mg/kg, route oral; settings: in vivo, read-out: Drug uptake
[16] = AUC ( 0 to 24 hrs) in BALB/c mouse at 240 mg/kg, po; format: ADME, organism-based; parameters: time < 24 hr, dose 240 mg/kg, route oral; settings: plasma
[17] = Homo sapiens, NCI-N87, read-out: IC50
[18] = Homo sapiens, A2780, read-out: IC50

Chain of Epidermal growth factor receptor (Homo sapiens) (P00533 whole entry, looked up): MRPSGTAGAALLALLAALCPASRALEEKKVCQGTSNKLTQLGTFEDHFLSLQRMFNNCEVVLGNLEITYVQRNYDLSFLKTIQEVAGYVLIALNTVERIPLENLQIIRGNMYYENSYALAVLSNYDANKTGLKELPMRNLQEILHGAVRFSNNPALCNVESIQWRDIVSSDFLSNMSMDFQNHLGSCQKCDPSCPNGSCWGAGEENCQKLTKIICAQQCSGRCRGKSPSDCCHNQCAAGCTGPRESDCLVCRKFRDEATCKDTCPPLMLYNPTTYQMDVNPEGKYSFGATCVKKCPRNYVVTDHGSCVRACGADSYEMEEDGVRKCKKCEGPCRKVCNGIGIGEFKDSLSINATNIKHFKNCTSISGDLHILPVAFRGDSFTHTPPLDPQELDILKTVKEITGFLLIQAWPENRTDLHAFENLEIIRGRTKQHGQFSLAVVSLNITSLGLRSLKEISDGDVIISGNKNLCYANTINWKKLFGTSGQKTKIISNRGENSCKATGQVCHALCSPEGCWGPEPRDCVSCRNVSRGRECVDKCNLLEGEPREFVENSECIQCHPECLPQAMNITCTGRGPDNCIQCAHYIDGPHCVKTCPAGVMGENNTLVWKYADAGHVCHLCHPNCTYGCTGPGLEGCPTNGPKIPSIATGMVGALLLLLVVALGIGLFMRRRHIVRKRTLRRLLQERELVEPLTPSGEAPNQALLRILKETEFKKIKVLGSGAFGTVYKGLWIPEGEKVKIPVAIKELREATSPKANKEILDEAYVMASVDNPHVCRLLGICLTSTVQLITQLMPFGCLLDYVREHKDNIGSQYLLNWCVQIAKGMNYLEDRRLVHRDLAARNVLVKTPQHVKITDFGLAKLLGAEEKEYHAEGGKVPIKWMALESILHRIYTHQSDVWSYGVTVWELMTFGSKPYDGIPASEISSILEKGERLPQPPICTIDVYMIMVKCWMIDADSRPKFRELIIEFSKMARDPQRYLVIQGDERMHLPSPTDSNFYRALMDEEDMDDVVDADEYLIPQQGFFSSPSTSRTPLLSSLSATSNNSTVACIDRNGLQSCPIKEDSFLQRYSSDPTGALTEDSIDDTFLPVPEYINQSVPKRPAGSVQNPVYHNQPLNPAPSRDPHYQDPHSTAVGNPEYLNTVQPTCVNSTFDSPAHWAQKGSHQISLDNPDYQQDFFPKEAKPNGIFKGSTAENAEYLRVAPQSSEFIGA
Chain of Receptor tyrosine-protein kinase erbB-2 (Homo sapiens) (P04626 whole entry, looked up): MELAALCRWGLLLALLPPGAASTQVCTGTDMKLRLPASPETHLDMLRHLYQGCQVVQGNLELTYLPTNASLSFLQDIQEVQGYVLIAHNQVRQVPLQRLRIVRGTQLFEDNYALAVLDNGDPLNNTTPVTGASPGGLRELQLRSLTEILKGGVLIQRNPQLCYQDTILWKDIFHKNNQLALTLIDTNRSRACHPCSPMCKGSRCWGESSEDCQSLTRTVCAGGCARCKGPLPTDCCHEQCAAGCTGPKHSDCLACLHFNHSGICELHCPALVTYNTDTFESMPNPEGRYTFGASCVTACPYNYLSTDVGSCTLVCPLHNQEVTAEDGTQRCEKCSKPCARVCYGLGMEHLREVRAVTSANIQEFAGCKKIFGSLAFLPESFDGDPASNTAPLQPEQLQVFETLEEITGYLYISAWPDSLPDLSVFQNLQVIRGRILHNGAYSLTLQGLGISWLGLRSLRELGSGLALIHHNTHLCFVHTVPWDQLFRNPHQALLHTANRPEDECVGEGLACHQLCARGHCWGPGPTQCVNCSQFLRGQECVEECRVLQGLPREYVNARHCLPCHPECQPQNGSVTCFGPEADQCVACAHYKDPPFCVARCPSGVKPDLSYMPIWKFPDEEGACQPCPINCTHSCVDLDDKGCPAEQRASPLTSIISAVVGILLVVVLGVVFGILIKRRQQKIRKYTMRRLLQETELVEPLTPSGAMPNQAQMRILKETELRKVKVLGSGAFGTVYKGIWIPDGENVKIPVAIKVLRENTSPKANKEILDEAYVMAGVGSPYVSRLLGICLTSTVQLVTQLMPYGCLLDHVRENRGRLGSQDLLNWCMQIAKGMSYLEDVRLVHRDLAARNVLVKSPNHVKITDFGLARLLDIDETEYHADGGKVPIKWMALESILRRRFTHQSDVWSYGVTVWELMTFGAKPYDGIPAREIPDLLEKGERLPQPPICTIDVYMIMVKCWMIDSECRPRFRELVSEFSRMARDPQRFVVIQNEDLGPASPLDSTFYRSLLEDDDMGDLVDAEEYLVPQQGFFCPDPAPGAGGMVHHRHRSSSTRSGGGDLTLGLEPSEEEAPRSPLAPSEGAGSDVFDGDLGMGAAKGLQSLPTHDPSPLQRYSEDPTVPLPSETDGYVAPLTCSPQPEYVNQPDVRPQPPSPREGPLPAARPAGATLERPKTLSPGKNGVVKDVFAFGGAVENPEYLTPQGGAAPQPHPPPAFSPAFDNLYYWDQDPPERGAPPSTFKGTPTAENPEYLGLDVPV
Chain of Vascular endothelial growth factor receptor 2 (P35968 whole entry): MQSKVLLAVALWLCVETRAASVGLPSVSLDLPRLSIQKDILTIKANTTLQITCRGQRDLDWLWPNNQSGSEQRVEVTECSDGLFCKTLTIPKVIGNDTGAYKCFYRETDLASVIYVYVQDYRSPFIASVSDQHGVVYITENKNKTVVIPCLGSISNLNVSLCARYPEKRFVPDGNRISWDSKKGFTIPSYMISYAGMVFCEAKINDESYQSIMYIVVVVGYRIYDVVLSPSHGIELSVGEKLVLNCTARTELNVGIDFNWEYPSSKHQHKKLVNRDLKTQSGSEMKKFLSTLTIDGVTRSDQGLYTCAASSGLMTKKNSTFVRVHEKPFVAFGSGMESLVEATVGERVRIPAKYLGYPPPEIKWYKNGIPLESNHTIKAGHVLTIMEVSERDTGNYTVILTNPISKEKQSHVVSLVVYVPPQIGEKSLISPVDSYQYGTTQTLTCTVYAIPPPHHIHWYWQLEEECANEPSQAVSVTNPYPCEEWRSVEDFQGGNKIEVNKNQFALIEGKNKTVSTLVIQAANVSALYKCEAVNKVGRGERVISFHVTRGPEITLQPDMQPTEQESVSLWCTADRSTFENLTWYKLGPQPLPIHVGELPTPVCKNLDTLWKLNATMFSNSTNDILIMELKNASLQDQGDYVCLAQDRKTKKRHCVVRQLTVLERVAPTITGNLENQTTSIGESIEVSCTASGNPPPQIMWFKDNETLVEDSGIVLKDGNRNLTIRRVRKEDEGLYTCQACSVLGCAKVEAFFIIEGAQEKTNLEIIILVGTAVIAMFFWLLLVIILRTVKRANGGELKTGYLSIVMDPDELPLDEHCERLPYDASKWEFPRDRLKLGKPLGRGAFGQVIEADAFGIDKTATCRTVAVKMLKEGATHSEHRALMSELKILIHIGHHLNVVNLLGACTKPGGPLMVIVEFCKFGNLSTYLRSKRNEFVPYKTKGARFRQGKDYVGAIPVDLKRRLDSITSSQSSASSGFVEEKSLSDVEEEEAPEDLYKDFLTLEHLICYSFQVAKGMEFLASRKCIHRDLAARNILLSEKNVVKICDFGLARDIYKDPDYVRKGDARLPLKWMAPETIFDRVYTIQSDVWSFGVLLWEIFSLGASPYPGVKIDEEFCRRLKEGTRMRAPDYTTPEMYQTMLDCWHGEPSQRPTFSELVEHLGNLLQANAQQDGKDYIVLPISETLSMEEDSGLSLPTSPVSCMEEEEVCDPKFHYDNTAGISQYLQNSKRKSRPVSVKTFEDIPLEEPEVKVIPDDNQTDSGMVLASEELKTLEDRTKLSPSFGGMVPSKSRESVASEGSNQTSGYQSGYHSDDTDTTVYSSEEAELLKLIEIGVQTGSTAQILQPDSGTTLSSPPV
Chain of Tyrosine-protein kinase Lck (P06239 whole entry): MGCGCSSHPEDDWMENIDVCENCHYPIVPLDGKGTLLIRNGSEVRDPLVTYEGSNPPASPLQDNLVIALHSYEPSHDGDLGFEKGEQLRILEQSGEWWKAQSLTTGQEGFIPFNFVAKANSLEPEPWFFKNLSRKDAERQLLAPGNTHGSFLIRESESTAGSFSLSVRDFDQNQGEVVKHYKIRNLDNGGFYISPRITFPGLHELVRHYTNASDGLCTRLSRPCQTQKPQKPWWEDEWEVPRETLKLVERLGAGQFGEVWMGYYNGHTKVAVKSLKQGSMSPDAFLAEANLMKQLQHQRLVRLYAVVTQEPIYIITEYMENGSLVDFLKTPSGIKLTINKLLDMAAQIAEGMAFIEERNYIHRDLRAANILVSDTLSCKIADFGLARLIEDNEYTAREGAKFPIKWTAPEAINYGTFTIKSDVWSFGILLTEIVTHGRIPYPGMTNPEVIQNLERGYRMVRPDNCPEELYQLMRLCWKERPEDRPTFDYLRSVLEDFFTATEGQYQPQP

| Structure (SMILES) | IC50 [3] [nM] | IC50 [5] [nM] | IC50 (NCI-N87 [6]; [17]) [nM] | IC50 (A2780; [18]) [nM] | also measured |
| --- | --- | --- | --- | --- | --- |
| NC1CCN(Cc2ccn3ncnc(Nc4ccc5c(cnn5Cc5cccc(F)c5)c4)c23)CC1 | 22 |  |  |  | concentration at 4 h [1]: 2.7 µM; Cmax [2]: 4.5 µM; minimal effective dose (NCI-N87 [4]): 60 mg/kg |
| NC1CCN(Cc2ccn3ncnc(Nc4cccc(Br)c4)c23)CC1 | 4 | 6 | 50 | 2600 |  |
| C#Cc1cccc(Nc2ncnn3ccc(COC[C@@H]4CNCCO4)c23)c1 | 20 | 670 | 4400 | 3900 |  |
| NC1CCN(Cc2ccn3ncnc(Nc4ccc(F)c(Cl)c4)c23)CC1 | 6 | 10 | 120 | > 5000 | minimal effective dose [7]: 15 mg/kg; AUC(0-t) at 24 h [8]: 160 µM·h; fraction unbound at 10 µM [9]: 0.012; IC50 [10]: 370 nM; IC50 [11]: 110 nM; concentration at 3 h [12]: 7.2 µM; concentration at 24 h [13]: 6.8 µM |
| NC1CCN(Cc2ccn3ncnc(Nc4cc(Cl)cc(Cl)c4)c23)CC1 | 34 | 130 | 3360 | 4000 |  |
| COc1ccc(Nc2ncnn3ccc(CN4CCC(N)CC4)c23)cc1Cl | 70 | 210 | 1210 | > 5000 |  |
| Fc1cccc(Cn2ncc3cc(Nc4ncnn5ccc(COC[C@@H]6CNCCO6)c45)ccc32)c1 |  |  |  |  | concentration at 24 h [14]: 0.1 µM; concentration at 3 h [15]: 5.8 µM; Cmax [2]: 9.5 µM; fraction unbound at 10 µM [9]: 0.026; AUC(0-t) at 24 h [16]: 100 µM·h; minimal effective dose (NCI-N87 [4]): 60 mg/kg |
| Cc1cccc(Nc2ncnn3ccc(CN4CCC(N)CC4)c23)c1 | 5 | 20 | 140 | > 5000 | minimal effective dose [7]: 60 mg/kg |
| NC1CCN(Cc2ccn3ncnc(Nc4cccc(Cl)c4)c23)CC1 | 4 | 9 | 60 | > 5000 | minimal effective dose [7]: 60 mg/kg |
| C#Cc1cccc(Nc2ncnn3ccc(CN4CCC(N)CC4)c23)c1 | 7 | 10 | 120 | 2300 | minimal effective dose [7]: 15 mg/kg |
| CC(C)Nc1ncnn2ccc(CN3CCC(N)CC3)c12 | 880 | > 1000 |  |  |  |
| Cn1ncc2cc(Nc3ncnn4ccc(COC[C@@H]5CNCCO5)c34)ccc21 | > 1000 | > 1000 |  |  | IC50 (NCI-N87 [6]; nci-n87): Not Active; IC50 (A2780; a2780): Not Active |
| NC1CCN(Cc2ccn3ncnc(Nc4cccc(F)c4)c23)CC1 | 6 | 32 | 280 | > 5000 |  |
| NC1CCN(Cc2ccn3ncnc(Nc4ccccc4)c23)CC1 |  |  | 140 | 3700 |  |
| Cn1ncc2cc(Nc3ncnn4ccc(CN5CCC(N)CC5)c34)ccc21 | 360 | 950 |  |  | IC50 (NCI-N87 [6]; nci-n87): Not Active; IC50 (A2780; a2780): Not Active |
| Cc1ccc(Nc2ncnn3ccc(CN4CCC(N)CC4)c23)cc1 | 6 | 50 | 790 | > 5000 |  |
| Cc1ccccc1Nc1ncnn2ccc(CN3CCC(N)CC3)c12 | 20 | 660 | 3300 | > 5000 |  |
| Cc1c(NC(=O)OC[C@@H]2COCCN2)cn2ncnc(Nc3ccc4c(cnn4Cc4cccc(F)c4)c3)c12 [AC-480] |  |  |  |  | minimal effective dose [7]: 120 mg/kg; minimal effective dose (NCI-N87 [4]): 120 mg/kg |
